{"source": "patent US11384076B2", "about": "“Synthesis, pharmacology and use of new and selective FMS-like tyrosine kinase 3 (FLT3) FLT3 inhibitors” (UNIVERSITÄT REGENSBURG, priority 2017, dated 2022)", "key": {"[1]": {"tested_on": "FLT3-ITD in MOLM-13 cells", "assay": "FLT3-ITD signaling, Western blot of cell lysates", "conditions": "MOLM-13, 5 nM"}, "[2]": {"tested_on": "Ba/F3 ITD D835Y mutant", "assay": "FLT3 signaling in Ba/F3 mutants, Western blot", "type": "cell-based, murine", "conditions": "5 nM, 2 h"}, "[3]": {"tested_on": "MV4-11 cells", "assay": "Vitality assay, DAPI staining, flow cytometry", "type": "cell-based, human", "conditions": "1, 5, 10, 100 nM, 48 h; especially at 1 nM, 5 nM and 10 nM", "description": "FIG. 14: Results of vitality assay in which MV4-11 cells were exposed to FLT3-inhibitors Marbotinib, Marbotinib Carbamate and ACC220, at different concentrations, and cell viability staining was performed.\nMV4-11 cells were treated with FLT3-inhibitors at different concentrations (1 nM, 5 nM, 10 nM, 100 nM) for 48 h. Viability staining was performed using life cell staining with DAPI. Samples were analysed using flow cytometry via FACS Canto; N=3."}, "[4]": {"tested_on": "PBMCs", "assay": "Cell cycle distribution / subG1 fraction, PI staining, flow cytometry", "type": "cell-based, human", "conditions": "PBMCs, 2, 5, 10 nM, 48 h", "description": "(§1) FIG. 5: Diverse human cell lines or cells were treated with different concentrations of Marbotinib (2 nM, 5 nM or 10 nM) or 5 μM STS for 48 h. Cells were harvested and stained with PI; cell cycle distribution were analyzed by flow cytometry. Cell cycle distribution and changes of subG1 fraction are illustrated. A) K562 cell line; B) NB4 cell line; C) PBMCs; n=2\n(§2) After incubation, cells were harvested on ice and fixed in 80% ethanol at −20° C. for at least 1 h. Next, the cells were incubated with RNase for 30 min at room temperature, thereafter stained with propidium iodide (PI), and measured immediately with a flow cytometer. PI intercalates into DNA. In the different phases of the cell cycle, cells incorporate various amounts of PI. This allows the quantification of the cell cycle phases. The subG1 population represents the fraction of apoptotic/necrotic cells, which contains only fragmented DNA (DNA content <2N).\n(§3) Additional experiments were performed to ensure the specificity of Marbotinib. Other human blood cell lines that carry no FLT3-ITD were stimulated with Marbotinib and analyzed. K562 cells derived from a patient with chronic myeloid leukemia. These cells are precursors from erythrocytes and carry a mutation of the tyrosine kinase BCR-ABL. The NB4 cells derived from a patient with acute promyelocytic leukemia and carry a mutation in the PML-RARA fusion protein (Noack, Mahendrarajah et al. 2016). Peripheral blood mononuclear cells (PBMCs) were freshly isolated from whole blood samples and used immediately for experiments. K562, NB4 and PBMCs were stimulated with different concentrations of Marbotinib for 48 h and cell cycle distribution was analyzed by flow cytometry. Marbotinib selectively leads to an increase of subG1 fraction only in FLT3-ITD positive cell lines (FIG. 3 and FIG. 4). Cell lines or cells that carry no FLT3-ITD are not affected by Marbotinib (FIG. 5)."}, "[5]": {"tested_on": "K562 cells", "assay": "Cell cycle distribution / subG1 fraction, PI staining, flow cytometry", "type": "cell-based, human", "conditions": "K562, 2, 5, 10 nM, 48 h", "description": "as §1, §2, §3"}, "[6]": {"tested_on": "NB4 cells", "assay": "Cell cycle distribution / subG1 fraction, PI staining, flow cytometry", "type": "cell-based, human", "conditions": "NB4, 2, 5, 10 nM, 48 h", "description": "as §1, §2, §3"}, "[7]": {"tested_on": "FLT3-ITD in MV4-11 cells", "assay": "Dephosphorylation of FLT3-ITD and downstream targets over time, Western blot", "type": "cell-based, human", "conditions": "5 nM; 2 h, 6 h, 16 h, 24 h", "source_text": "Whole cell lysates were used for SDS-Page and Western blot. The blots show dephosporylation of FLT3-ITD and some of its downstream targets, cell cycle regulators, and DNA damage regulators after treatment with FLT3-inhibitors over time. GAPDH was used as loading control. Control is indicated as CTRL. Marbotinib is indicated as FLT3i3 and Marbotinib-Carbamat is indicated as FLT3i540."}, "[8]": {"tested_on": "PBMCs", "assay": "AnnexinV FITC/PI apoptosis staining, flow cytometry", "type": "cell-based, human", "conditions": "PBMCs, 2, 5, 10 nM, 24 h", "description": "(§4) FIG. 6: […] Illustrated are the different populations of living cells, early apoptosis and late apoptosis/necrosis. To elucidate the apoptotic effects the population of cells in early apoptosis and late apoptosis/necrosis is represented in a separate diagram. A) MV4-11 cell line; B) PBMCs; n=1 To analyze apoptosis cells were treated as indicated and harvested on ice. Thereafter cells were stained with Annexin V FITC for 15 min on ice in the dark. After incubation time cells were stained with PI and measured immediately on flow cytometer. An Annexin V FITC and PI single stained sample was used for compensation and an unstained control sample was used to exclude autofluorescence. […] The subG1 fraction is only a hint for apoptosis therefore we stained MV4-11 cells and PBMCs for AnnexinV FITC/PI. This staining allows a differentiation between early apoptosis and late apoptosis. […] Treating FLT3-ITD positive cells with only 5 nM Marbotinib leads to a strong induction of apoptosis without affecting other cells or cell lines tested here."}, "[9]": {"tested_on": "MV4-11 cells", "assay": "AnnexinV FITC/PI apoptosis staining, flow cytometry", "type": "cell-based, human", "conditions": "MV4-11, 2, 5, 10 nM, 24 h", "description": "as §4"}, "[10]": {"tested_on": "Ba/F3 ITD N676K mutant", "assay": "FLT3 signaling in Ba/F3 mutants, Western blot", "conditions": "5 nM, 2 h"}}, "data": [{"smiles": "CC(C)(C)c1cc(NC(=O)Nc2ccc3oc(C(=O)c4cc5cc(O)ccc5[nH]4)cc3c2)no1", "note": "[Marbotinib, 1-(5-(tert-butyl)isoxazol-3-yl)-3-(2-(5-hydroxy-1H-indole-2-carbonyl)benzofuran-5-yl)urea]", "values": [{"measurement": "p-STAT5", "setting": "[1]", "value": "clear reduction"}, {"measurement": "p-FLT3-ITD", "setting": "[1]; 1 h", "value": "clearly reduces"}, {"measurement": "signal of p-FLT3 and p-STAT5", "setting": "[2]", "value": "strong reduction"}, {"measurement": "cell viability, efficacy compared with AC220", "setting": "[3]", "value": "more effective than compound AC220"}, {"measurement": "cell cycle distribution / subG1 fraction", "setting": "[4]", "value": "not affected"}, {"measurement": "cell cycle distribution / subG1 fraction", "setting": "[5]", "value": "not affected"}, {"measurement": "cell cycle distribution / subG1 fraction", "setting": "[6]", "value": "not affected"}, {"measurement": "block of FLT3-ITD and its associated signaling cascades", "setting": "[7]", "value": "effectively block"}, {"measurement": "apoptosis (AnnexinV FITC/PI)", "setting": "[8]", "value": "no changes in basal apoptosis"}, {"measurement": "apoptosis (AnnexinV FITC/PI)", "setting": "[9]", "value": "clear induction of apoptosis"}, {"measurement": "signal of p-FLT3", "setting": "[10]", "value": "strong reduction"}, {"measurement": "signal of p-STAT5", "setting": "[10]", "value": "strong reduction"}]}]}
